Test results as given in ChEMBL document CHEMBL3046815, “Evaluation of fungicides for the management of Botryosphaeria dieback diseases of grapevines” (Pest Manag Sci, 2012).

Assays:
Diplodia mutila [1] = assay: Fungicidal activity against Diplodia mutila Q assessed as conidial germination inhibition after 48 hr; type: functional, organism-based; details: pooled result: one value given for 3 cell lines, strains, targets or settings
Neofusicoccum luteum [2] = assay: Fungicidal activity against Neofusicoccum luteum infected Pinot noir grapevine assessed as pathogen incidence at dieback edges compound applied 24 hr prior inoculation to pruning wound measured after 1 year; type: functional; parameters: concentration or dose not given beside the values
Neofusicoccum luteum [3] = assay: Fungicidal activity against Neofusicoccum luteum infected Pinot noir grapevine assessed as pathogen incidence at dieback sites compound applied 24 hr prior inoculation to pruning wound measured after 1 year; type: functional; parameters: concentration or dose not given beside the values
Neofusicoccum australe [4] = assay: Fungicidal activity against Neofusicoccum australe J-3 assessed as mycelial growth inhibition after 48 hr; type: functional, organism-based; details: pooled result: one value given for 3 cell lines, strains, targets or settings
Neofusicoccum luteum [5] = assay: Fungicidal activity against Neofusicoccum luteum N(12)2 assessed as conidial germination inhibition after 48 hr; type: functional, organism-based; details: pooled result: one value given for 3 cell lines, strains, targets or settings
Neofusicoccum australe [6] = assay: Fungicidal activity against Neofusicoccum australe J-3 assessed as conidial germination inhibition after 48 hr; type: functional, organism-based; details: pooled result: one value given for 3 cell lines, strains, targets or settings
Neofusicoccum luteum [7] = assay: Fungicidal activity against Neofusicoccum luteum infected Pinot noir grapevine assessed as mean pathogen compound applied 24 hr prior inoculation to pruning wound measured after 1 year; type: functional; parameters: concentration or dose not given beside the values
Neofusicoccum luteum [8] = assay: Fungicidal activity against Neofusicoccum luteum N(12)2 assessed as mycelial growth inhibition after 48 hr; type: functional, organism-based; details: pooled result: one value given for 3 cell lines, strains, targets or settings
Neofusicoccum luteum [9] = assay: Fungicidal activity against Neofusicoccum luteum infected Pinot noir grapevine assessed as dieback lesion length at 25 g AI /100 L applied 24 hr prior inoculation to pruning wound measured after 3 months; type: functional
Neofusicoccum luteum [10] = assay: Fungicidal activity against Neofusicoccum luteum infected Pinot noir grapevine assessed as non-lesion areas compound applied 24 hr prior inoculation to pruning wound measured after 1 year; type: functional; parameters: concentration or dose not given beside the values
Neofusicoccum luteum [11] = assay: Fungicidal activity against Neofusicoccum luteum infected Pinot noir grapevine assessed as pathogen incidence at closest side shoot compound applied 24 hr prior inoculation to pruning wound measured after 6 months; type: functional; parameters: concentration or dose not given beside the values
Neofusicoccum luteum [12] = assay: Fungicidal activity against Neofusicoccum luteum infected Pinot noir grapevine assessed as pathogen incidence at 25 g AI /100 L applied 24 hr prior inoculation to pruning wound measured after 3 months; type: functional
Neofusicoccum luteum [13] = assay: Fungicidal activity against Neofusicoccum luteum infected Pinot noir grapevine assessed as pathogen incidence at area beyond node compound applied 24 hr prior inoculation to pruning wound measured after 1 year; type: functional; parameters: concentration or dose not given beside the values
Diplodia mutila [14] = assay: Fungicidal activity against Diplodia mutila Q assessed as mycelial growth inhibition after 48 hr; type: functional, organism-based; details: pooled result: one value given for 3 cell lines, strains, targets or settings
Neofusicoccum luteum [15] = assay: Fungicidal activity against Neofusicoccum luteum infected Pinot noir grapevine assessed as dieback lesion length at 210 g AI /100 L applied 24 hr prior inoculation to pruning wound measured after 3 months; type: functional
Neofusicoccum luteum [16] = assay: Fungicidal activity against Neofusicoccum luteum infected Pinot noir grapevine assessed as pathogen incidence at 210 g AI /100 L applied 24 hr prior inoculation to pruning wound measured after 3 months; type: functional
Neofusicoccum luteum [17] = assay: Fungicidal activity against Neofusicoccum luteum infected Pinot noir grapevine assessed as pathogen incidence at 39 g AI /100 L applied 24 hr prior inoculation to pruning wound measured after 3 months; type: functional
Neofusicoccum luteum [18] = assay: Fungicidal activity against Neofusicoccum luteum infected Pinot noir grapevine assessed as dieback lesion length at 39 g AI /100 L applied 24 hr prior inoculation to pruning wound measured after 3 months; type: functional
Neofusicoccum luteum [19] = assay: Fungicidal activity against Neofusicoccum luteum infected Pinot noir grapevine assessed as dieback lesion length at 2.5 g AI /100 L applied 24 hr prior inoculation to pruning wound measured after 3 months; type: functional
Neofusicoccum luteum [20] = assay: Fungicidal activity against Neofusicoccum luteum infected Pinot noir grapevine assessed as pathogen incidence at 2.5 g AI /100 L applied 24 hr prior inoculation to pruning wound measured after 3 months; type: functional
Neofusicoccum luteum [21] = assay: Fungicidal activity against Neofusicoccum luteum infected Pinot noir grapevine assessed as pathogen incidence at 4 g AI /100 L applied 24 hr prior inoculation to pruning wound measured after 3 months; type: functional
Neofusicoccum luteum [22] = assay: Fungicidal activity against Neofusicoccum luteum infected Pinot noir grapevine assessed as dieback lesion length at 4 g AI /100 L applied 24 hr prior inoculation to pruning wound measured after 3 months; type: functional
Neofusicoccum luteum [23] = assay: Fungicidal activity against Neofusicoccum luteum infected Pinot noir grapevine assessed as pathogen incidence at 50 g AI /100 L applied 24 hr prior inoculation to pruning wound measured after 3 months; type: functional
Neofusicoccum luteum [24] = assay: Fungicidal activity against Neofusicoccum luteum infected Pinot noir grapevine assessed as dieback lesion length at 50 g AI /100 L applied 24 hr prior inoculation to pruning wound measured after 3 months; type: functional
Neofusicoccum luteum [25] = assay: Fungicidal activity against Neofusicoccum luteum infected Pinot noir grapevine assessed as pathogen incidence at 45 g AI /100 L applied 24 hr prior inoculation to pruning wound measured after 3 months; type: functional
Neofusicoccum luteum [26] = assay: Fungicidal activity against Neofusicoccum luteum infected Pinot noir grapevine assessed as dieback lesion length at 45 g AI /100 L applied 24 hr prior inoculation to pruning wound measured after 3 months; type: functional
Neofusicoccum luteum [27] = assay: Fungicidal activity against Neofusicoccum luteum infected Pinot noir grapevine assessed as pathogen incidence at 55 g AI /100 L applied 24 hr prior inoculation to pruning wound measured after 3 months; type: functional
Neofusicoccum luteum [28] = assay: Fungicidal activity against Neofusicoccum luteum infected Pinot noir grapevine assessed as dieback lesion length at 55 g AI /100 L applied 24 hr prior inoculation to pruning wound measured after 3 months; type: functional
Neofusicoccum luteum [29] = assay: Fungicidal activity against Neofusicoccum luteum infected Pinot noir grapevine assessed as pathogen incidence at 32 g AI /100 L applied 24 hr prior inoculation to pruning wound measured after 3 months; type: functional
Neofusicoccum luteum [30] = assay: Fungicidal activity against Neofusicoccum luteum infected Pinot noir grapevine assessed as dieback lesion length at 32 g AI /100 L applied 24 hr prior inoculation to pruning wound measured after 3 months; type: functional
Neofusicoccum luteum [31] = assay: Fungicidal activity against Neofusicoccum luteum infected Pinot noir grapevine assessed as dieback lesion length at 40 g AI /100 L applied 24 hr prior inoculation to pruning wound measured after 3 months; type: functional
Neofusicoccum luteum [32] = assay: Fungicidal activity against Neofusicoccum luteum infected Pinot noir grapevine assessed as pathogen incidence at 40 g AI /100 L applied 24 hr prior inoculation to pruning wound measured after 3 months; type: functional
Neofusicoccum luteum [33] = assay: Fungicidal activity against Neofusicoccum luteum infected Pinot noir grapevine assessed as dieback lesion length at 80 g AI /100 L applied 24 hr prior inoculation to pruning wound measured after 3 months; type: functional, organism-based
Neofusicoccum luteum [34] = assay: Fungicidal activity against Neofusicoccum luteum infected Pinot noir grapevine assessed as pathogen incidence at 80 g AI /100 L applied 24 hr prior inoculation to pruning wound measured after 3 months; type: functional, organism-based

Row | Molecule | EC50 (Diplodia mutila [1]) | Activity (Neofusicoccum luteum [2]) | Activity (Neofusicoccum luteum [3]) | EC50 (Neofusicoccum australe [4]) | EC50 (Neofusicoccum luteum [5]) | EC50 (Neofusicoccum australe [6]) | Activity (Neofusicoccum luteum [7]) | EC50 (Neofusicoccum luteum [8]) | Activity (Neofusicoccum luteum [10]) | Activity (Neofusicoccum luteum [11]) | Activity (Neofusicoccum luteum [13]) | EC50 (Diplodia mutila [14]) | other results
1 | COC(=O)Nc1nc2ccccc2[nH]1 [CARBENDAZIM] | 0.01 mgAi/L | 10% | 27% | 0.023 mgAi/L | 0.04 mgAi/L | 0.01 mgAi/L | 9% | 0.061 mgAi/L | 7% | 3% | 0% | – | Activity (Neofusicoccum luteum [9]): 33.2 mm; Activity (Neofusicoccum luteum [12]): 0%
2 | N#Cc1c(Cl)c(Cl)c(Cl)c(C#N)c1Cl [CHLOROTHALONIL] | 1.35 mgAi/L | – | – | 3.847 mgAi/L | 11.15 mgAi/L | 10.79 mgAi/L | – | 7.873 mgAi/L | – | – | – | 0.258 mgAi/L | Activity (Neofusicoccum luteum [15]): 51.9 mm; Activity (Neofusicoccum luteum [16]): 30%
3 | N#Cc1sc2c(=O)c3ccccc3c(=O)c=2sc1C#N [DITHIANON] | 11.39 mgAi/L | – | – | 58.897 mgAi/L | 19.11 mgAi/L | 19.1 mgAi/L | – | 73.41 mgAi/L | – | – | – | 44.87 mgAi/L | Activity (Neofusicoccum luteum [17]): 30%; Activity (Neofusicoccum luteum [18]): 49.6 mm
4 | OC(c1ccc(Cl)cc1)(c1cncnc1)c1ccccc1Cl (stereo unspecified) [FENARIMOL] | 0.48 mgAi/L | 40% | 77% | 0.58 mgAi/L | 7.44 mgAi/L | 22.5 mgAi/L | 27% | 0.399 mgAi/L | 20% | 0% | 0% | 0.076 mgAi/L | Activity (Neofusicoccum luteum [19]): 52.8 mm; Activity (Neofusicoccum luteum [20]): 20%
5 | C[Si](Cn1cncn1)(c1ccc(F)cc1)c1ccc(F)cc1 [FLUSILAZOLE] | 0.56 mgAi/L | 0% | 0% | 0.002 mgAi/L | 1.23 mgAi/L | 1.34 mgAi/L | 0% | 0.003 mgAi/L | 0% | 0% | 0% | 0.001 mgAi/L | Activity (Neofusicoccum luteum [21]): 0%; Activity (Neofusicoccum luteum [22]): 41.4 mm
6 | CC(C)NC(=O)N1CC(=O)N(c2cc(Cl)cc(Cl)c2)C1=O [IPRODIONE] | 0.03 mgAi/L | 53% | 83% | 0.273 mgAi/L | 0.04 mgAi/L | 0.05 mgAi/L | 34% | 0.314 mgAi/L | 30% | 3% | 0% | 0.247 mgAi/L | Activity (Neofusicoccum luteum [23]): 0%; Activity (Neofusicoccum luteum [24]): 39.9 mm
7 | COCC(=O)N(c1c(C)cccc1C)C(C)C(=O)OC (stereo unspecified) [METALAXYL] | 45.72 mgAi/L | – | – | 102.6 mgAi/L | 218.01 mgAi/L | 113.11 mgAi/L | – | 188 mgAi/L | – | – | – | 61.995 mgAi/L | –
8 | CCCN(CCOc1c(Cl)cc(Cl)cc1Cl)C(=O)n1ccnc1 [PROCHLORAZ] | 22.97 mgAi/L | 67% | 97% | 0.098 mgAi/L | 46.86 mgAi/L | 13.23 mgAi/L | 43% | 0.054 mgAi/L | 40% | 13% | 0% | 0.001 mgAi/L | Activity (Neofusicoccum luteum [25]): 70%; Activity (Neofusicoccum luteum [26]): 60.5 mm
9 | CC12CC1(C)C(=O)N(c1cc(Cl)cc(Cl)c1)C2=O (stereo unspecified) [PROCYMIDONE] | – | 40% | 70% | 0.23 mgAi/L | 0.02 mgAi/L | 0.01 mgAi/L | 27% | 0.183 mgAi/L | 20% | 7% | 0% | 0.227 mgAi/L | Activity (Neofusicoccum luteum [27]): 20%; Activity (Neofusicoccum luteum [28]): 47.8 mm
10 | CC(C)(C)C(O)(CCc1ccc(Cl)cc1)Cn1cncn1 (stereo unspecified) [TEBUCONAZOLE] | 0.6 mgAi/L | 27% | 37% | 0.098 mgAi/L | 6.23 mgAi/L | 3.38 mgAi/L | 16% | 0.076 mgAi/L | 13% | 3% | 0% | 0.01 mgAi/L | Activity (Neofusicoccum luteum [29]): 20%; Activity (Neofusicoccum luteum [30]): 50.2 mm
11 | COC(=O)NC(=S)Nc1ccccc1NC(=S)NC(=O)OC [THIOPHANATE METHYL] | 0.29 mgAi/L | 33% | 47% | 1.079 mgAi/L | 2.41 mgAi/L | 5.09 mgAi/L | 20% | 1.237 mgAi/L | 17% | 3% | 0% | 0.485 mgAi/L | Activity (Neofusicoccum luteum [31]): 53.3 mm; Activity (Neofusicoccum luteum [32]): 30%
12 | O=CNC(N1CCN(C(NC=O)C(Cl)(Cl)Cl)CC1)C(Cl)(Cl)Cl (stereo unspecified) [TRIFORINE] | 49.59 mgAi/L | – | – | 28.139 mgAi/L | 159.9 mgAi/L | 126.3 mgAi/L | – | 23.73 mgAi/L | – | – | – | 0.039 mgAi/L | –
13 | COPPER HYDROXIDE [listing 1 of 2 here] | 4.16 mgAi/L | – | – | 106.83 mgAi/L | 8.7 mgAi/L | 5.68 mgAi/L | – | 77.437 mgAi/L | – | – | – | 68.64 mgAi/L | –
14 | COPPER HYDROXIDE [listing 2 of 2 here] | – | – | – | – | – | – | – | – | – | – | – | – | Activity (Neofusicoccum luteum [33]): 41.9 mm; Activity (Neofusicoccum luteum [34]): 20%
